Experimental data taken from PubChem BioAssay (NCI).
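Dose response: 5 concentrations. Exposure: 48 h. Format: 96-well plates. Endpoint: linear interpolation; highest concentration if not reached. Abbreviation: GI50, concentration required for 50% inhibition of growth. TGI: concentration producing complete growth inhibition.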

Tests used:
Assay in all cases: NCI-60 cell line screen, 48 h
[1] = system: NCI-H226 lung
[2] = system: NCI-H23 lung
[3] = system: NCI-H460 lung
[4] = system: NCI-H522 lung
[5] = system: NCI/ADR-RES ovarian
[6] = system: OVCAR-4 ovarian
[7] = system: OVCAR-5 ovarian
[8] = system: OVCAR-8 ovarian
[9] = system: PC-3 prostate
[10] = system: RPMI-8226 leukemia
[11] = system: RXF 393 renal
[12] = system: SF-268 CNS
[13] = system: SF-295 CNS
[14] = system: SF-539 CNS
[15] = system: SK-MEL-2 melanoma
[16] = system: SK-MEL-28 melanoma
[17] = system: SK-MEL-5 melanoma
[18] = system: SK-OV-3 ovarian
[19] = system: SN12C renal
[20] = system: SNB-19 CNS
[21] = system: SNB-75 CNS
[22] = system: SR leukemia
[23] = system: SW-620 colon
[24] = system: T-47D breast
[25] = system: TK-10 renal
[26] = system: U251 CNS
[27] = system: UACC-257 melanoma
[28] = system: UACC-62 melanoma
[29] = system: UO-31 renal

## N#Cc1cnc2ccc(-c3cnc(N)nc3)cc2c1N1CCc2cc(F)c(Cl)cc21
[1]
  GI50: 0.555 µM
  TGI: 11.3 µM
[2]
  GI50: 1.01 µM
  TGI: 9.84 µM
[3]
  GI50: 0.425 µM
  TGI: 11 µM
[4]
  GI50: 1.27 µM
  TGI: 8.08 µM
[5]
  GI50: 0.827 µM
  TGI: 25.9 µM
[6]
  GI50: 0.314 µM
  TGI: 7.24 µM
[7]
  GI50: 0.437 µM
  TGI: 11.3 µM
[8]
  GI50: 0.453 µM
  TGI: 13.9 µM
[9]
  GI50: 0.445 µM
  TGI: 12.3 µM
[10]
  GI50: 0.325 µM
  TGI: 3.19 µM
[11]
  GI50: 0.221 µM
  TGI: 1.25 µM
[12]
  GI50: 0.437 µM
  TGI: 5.28 µM
[13]
  GI50: 0.311 µM
  TGI: 4.49 µM
[14]
  GI50: 0.505 µM
  TGI: 3.36 µM
[15]
  GI50: 0.531 µM
  TGI: 2.02 µM
[16]
  GI50: 0.703 µM
  TGI: 6.73 µM
[17]
  GI50: 1.22 µM
  TGI: 2.52 µM
[18]
  GI50: 0.391 µM
  TGI: 3.69 µM
[19]
  GI50: 0.395 µM
  TGI: 14.7 µM
[20]
  GI50: 0.964 µM
  TGI: 17.2 µM
[21]
  GI50: 0.144 µM
  TGI: 0.834 µM
[22]
  GI50: 0.329 µM
  TGI: > 19.9 µM
[23]
  GI50: 0.977 µM
  TGI: 10.8 µM
[24]
  GI50: 0.233 µM
[25]
  GI50: 0.26 µM
  TGI: 2 µM
[26]
  GI50: 0.714 µM
  TGI: 9.58 µM
[27]
  GI50: 1.3 µM
  TGI: 6.87 µM
[28]
  GI50: 0.363 µM
  TGI: 2.6 µM
[29]
  GI50: 0.142 µM
  TGI: 4.64 µM
